Reference: paper PMC7796366, “Application of HPLC-DAD for In Vitro Investigation of Acetylcholinesterase Inhibition Activity of Selected Isoquinoline Alkaloids from Sanguinaria canadensis Extracts” (Molecules, 2021)
“And” between values parts separate entries of the source, which are not always exact repeats. Equal entries are not always repeated.

Biological target: T1, acetylcholinesterase (Homo sapiens, UniProt P22303)
T1 construct: purchased Sigma-Aldrich (St. Louis, MO, USA)
Test: biochemical
Type: biochemical
Details: for IC50: concentration of acetylcholinesterase 0.2 U/mL, HPLC-DAD; for inhibition: single alkaloid standard, addition of 125 µL of 1 mg/mL (250 µg/mL final), acetylcholinesterase 10 U/mL
Description: For determination of acetylcholinesterase inhibitory activity, HPLC analysis was performed on the same apparatus as determination of alkaloid contents on Polar RP column with mobile phase A containing methanol and 0.0025 M diethylamine, mobile phase B containing acetate buffer at pH 3.8 and 0.0025 M diethylamine, and mobile phase in gradient elution: 0–15 min, 10% A; 15–30 min, 10–70% A; 30–60 min, 70% A. Flow rate was 1 mL/min.
[…] Samples for determination of acetylcholinesterase inhibitory activity were prepared by addition of 50 µL of acetylthiocholine iodide, 50 µL of 5′-dithiobis-(2-nitrobenzoic acid), […], and phosphate buffer at pH 7.8 to obtain 500 µL of final solution. […] All components were mixed and samples were incubated for 15 min at 37 °C. Samples were filtrated by syringe filter (CHROMAFIL Xtra, PVDF-29/25 0.20 µm) and injected into the HPLC system.

T1 sequence (P22303 32-614, species assumed): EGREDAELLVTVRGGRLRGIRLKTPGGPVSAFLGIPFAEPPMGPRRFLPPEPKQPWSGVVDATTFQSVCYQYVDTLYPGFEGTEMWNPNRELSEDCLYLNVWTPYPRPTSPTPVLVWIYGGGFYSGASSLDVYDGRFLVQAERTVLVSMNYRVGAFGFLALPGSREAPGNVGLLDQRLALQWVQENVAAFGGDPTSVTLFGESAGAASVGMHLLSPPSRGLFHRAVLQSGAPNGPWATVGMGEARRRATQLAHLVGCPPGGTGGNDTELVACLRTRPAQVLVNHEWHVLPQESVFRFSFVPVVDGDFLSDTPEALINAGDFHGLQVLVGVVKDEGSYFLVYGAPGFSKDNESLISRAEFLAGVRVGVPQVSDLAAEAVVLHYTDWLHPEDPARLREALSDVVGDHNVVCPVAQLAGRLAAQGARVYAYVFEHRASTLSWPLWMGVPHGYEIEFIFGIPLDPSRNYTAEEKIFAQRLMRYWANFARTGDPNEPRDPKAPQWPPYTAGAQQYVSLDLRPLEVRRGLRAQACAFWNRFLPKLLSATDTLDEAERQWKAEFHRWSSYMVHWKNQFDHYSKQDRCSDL

SMILES	IC50	inhibition	% inhibition of acetylcholinesterase activity
CN1Cc2c(ccc3c2OCO3)[C@@H]2[C@H]1c1cc3c(cc1C[C@@H]2O)OCO3 [Chelidonine]	27 µM	100%	–
CN1CCc2cc3c(cc2C(=O)Cc2ccc4c(c2C1)OCO4)OCO3 [Protopine]	65.5 µM	~22%	–
C[n+]1cc2c3c(ccc2c2ccc4cc5c(cc4c21)OCO5)OCO3 [Sanguinarine]	5.57 µM	–	–
COc1ccc2cc3[n+](cc2c1OC)CCc1cc2c(cc1-3)OCO2 [Berberine]	–	–	highest activity
COc1ccc2c(c[n+](C)c3c4cc5c(cc4ccc23)OCO5)c1OC [Chelerythrine]	0.718 µM and 0.72 µM	100%	–
